Test results reported in patent US20220040304A1, “A COMPOSITION FOR CANCER CELL DEATH AND ITS USE” (Industry-University Cooperation Foundation Hanyang …, priority 2018, published 2022).

Assays:
MCF-10A = assay: Cell death with Co-h substrate by cell type (SYTOX Green or EthD-1/DAPI); format: cell-based, human; details: protein 10 μM, Co-h 150 μM for 5 minutes
Experimental: The cells were seeded at 5×10^5 cells/mL in 96-well plates (SPL Cell Culture Plate, 96 well (SPL, Cat #30096)), and cultured at 37° C. for 24 hours (overnight). After the culture for 24 hours, the cells were washed with FBS & phenol red-free media, and 100 μL of FBS & phenol red-free media containing a purified protein (final concentration: 10 μM) was added, followed by reaction at 37° C. for 24 hours.
Subsequently, the cells were washed with FBS & phenol red-free media, and 100 μL of FBS & phenol red-free media was added. 100 μL of FBS & Phenol red-free media (RPMI) containing a Co-h substrate solution (final concentration: 150 μM) was added, followed by reaction at 37° C. for 5 minutes.
After the reaction, 50 μL of SYTOX Green (final concentration: 261 nM) or 90 μL of ethidium homodimer (EthD-1) (final concentration 1×), which stains DNA of dead cells, was added, followed by reaction at 37° C. for 30 minutes. 10 μL of DAPI staining DNA of live cells was added, followed by reaction for 5 minutes. Cell death was confirmed by observing KillerRed, SYTOX Green, MiniSOG, EthD-1 and DAPI fluorescence using a confocal microscope.

[1] = Bioluminescence assay of purified proteins with Co-h substrate (BRET); format: physicochemical; details: protein 1 μM, Co-h 50 μM, 1×PBS
Experimental: In addition, 100 μL of buffer (1×PBS) containing the protein purified in Example 1 (final concentration: 1 μM) was dispensed into a 96-well plate (SPL Cell Culture Plate, 96 well (SPL, Cat #30196)), and bioluminescence assay was then performed using 50 μL of buffer (1×PBS) containing a Co-h substrate solution (final concentration: 50 μM), which is a wild-type 2-deoxy derivative. Bioluminescence intensity was immediately measured at a wavelength of 300 to 800 nm using a Thermo Scientific™ Varioskan™ Flash Multimode Reader.

| Substance | cell death with Co-h substrate (MCF-10A) | emission in bioluminescence assay (BRET) [1] [nm] |
| --- | --- | --- |
| RLuc8-MS: fusion protein of RLuc8 and MiniSOG without lead peptide, 53 kDa | none of the six breast cancer cell lines were killed | – |
| MS: first protein MiniSOG, ROS-generating protein (singlet oxygen), expressed from pRSET-MiniSOG, 13 kDa [reference compound] | – | 500 |
